The results in this text go back to patent publication US10213428B2, “(4-((3R,4R)-3-methoxytetrahydro-pyran-4-ylamino)piperidin-1-yl)(5-methyl-6-(((2R,6S)-6-(p-tolyl)tetrahydro-2H-pyran-2-yl)methylamino)pyrimidin-4-yl)methanone citrate” (Centrexion Therapeutics Corporation, priority 2015, dated 2019).

pIC50: −log10 of the molar value.

The test system of series [1] is plasma protein. Put plainly: In vitro plasma protein binding (equilibrium dialysis), minipig. The format is in vitro ADME. Conditions: 1.0 μM, dialysis 2 hours at 37° C. On the procedure:
(§1) Dianorm Teflon dialysis cells (micro 0.2) are used. Each cell consists of a donor (i.e., buffer chamber) and an acceptor chamber (i.e., plasma chamber), separated by an ultrathin semipermeable membrane with a 5 kDa molecular weight cutoff. Stock solutions for each test compound are prepared in DMSO at 1 mM and diluted to a final concentration of 1.0 μM. Aliquots of 200 μL dialysis buffer (100 mM potassium phosphate, pH 7.4) are dispensed into the buffer chamber. Aliquots of 200 μL test compound dialysis solution are dispensed into the plasma chambers. Incubation is carried out for 2 hours under rotation at 37° C. Then, the dialysate is transferred into reaction tubes. The tubes for the buffer fraction contain 0.2 mL acetonitril/water (80/20 volume/volume). Aliquots of 25 μL of the plasma dialysate are transferred into deep well plates and mixed with 25 μL acetonitril/water (80/20 volume/volume), 25 μL buffer, 25 μL calibration solution and 25 μL Internal Standard solution. Protein precipitation is done by adding 200 μL acetonitrile. Aliquots of 50 μL of the buffer dialysate are transferred into deep well plates and mixed with 25 μL blank plasma, 25 μL Internal Standard solution and 200 μL acetonitril. Percent bound is calculated with the formula: % bound=(plasma concentration−buffer concentration/plasma concentration)×100.
Background: In equilibrium dialysis free small molecules cross a membrane that holds back macromolecules.

Assay in series [2]: as above
It counts as in vitro ADME. The note with it: pH 7.4, dialysis 2 hours at 37° C., read-out: Fraction bound (converted). On the procedure:
as §1

Series [3] can be described thus: Intravenous pharmacokinetics in minipig. It counts as in vivo, Göttingen Minipigs. The note with it: IV dose 5 μmol/kg, mean values. The source says:
The pharmacokinetics of the test compound following single intravenous (IV) or oral (PO) doses were examined in • female BALB/c mice (average weight: 25 g) • male Wistar(Han) rats (average weight: 260 g) • male and female Göttingen Minipigs (average weight: 24 kg) • male beagle dogs (average weight: 15 kg) All non-rodent species were fasted overnight prior to dosing, while mice and rats had food and water available ad libitum. The p.o. dose of the compound was usually administered as suspension in 0.5% Natrosol or as a 0.5% Natrosol/0.015% Tween 80 suspension. For i.v. dosing purposes, the doses were applied as a solution in 0.9% NaCL, or as a solution containing 9.1% HP-beta Cyclodextrin in water.
Blood was collected by venous sampling and soaking of the blood in EDTA coated tubes. Samples were collected for up to 48 h after administration of the test compound. Plasma was then separated by centrifugation (5 min by approximately 9000 g at 4° C.). For determination of the test compound, plasma was transferred into PCR plates. All samples were stored at approximately −20° C. until bioanalytics. The test compound concentrations in plasma were determined by HPLC MS/MS. The lower limit of quantification was between 0.5 nmol/L and 1 nmol/L.

Series [4] concerns plasma protein. As to the kind of experiment: In vitro plasma protein binding (equilibrium dialysis), mouse. It counts as in vitro ADME. Conditions: 1.0 μM, dialysis 2 hours at 37° C. On the procedure:
as §1

Assay in series [5]: as above
It counts as in vitro ADME. Conditions: pH 7.4, dialysis 2 hours at 37° C., read-out: Fraction bound (converted). On the procedure: as §1

In series [6] the target is T1, hERG (Homo sapiens, UniProt Q12809).
T1 construct: expressed in transfected cells
Put plainly: hERG-channel assay (whole-cell patch clamp, HEK293 cells transfected with hERG cDNA). The format is cell-based. Conditions: human, HEK293 cells stably transfected with hERG cDNA, pH 7.4, read-out: inhibition of hERG-mediated potassium current. The source says: (§2) HEK (human embryonic kidney) 293 cells were stably transfected with hERG cDNA. Cells determined for use in patch clamp experiments were cultivated without antibiotic.
(§3) Cells were superfused with a bath solution containing (mM): NaCl (137), KCl (4.0), MgCl2 (1.0), CaCl2 (1.8), Glucose (10), HEPES (10), pH 7.4 with NaOH. Patch pipettes were made from borosilicate glass tubing (Hilgenberg, Malsfeld, Germany) using a horizontal puller (DMZ-Universal Puller, Zeitz-Instrumente, Martinsried, Germany) and filled with pipette solution containing (mM): K-aspartate (130), MgCl2 (5.0), EGTA (5.0), K2ATP (4.0), HEPES (10.0), pH 7.2 with KOH. Resistance of the microelectrodes was in the range between 2 and 5 MΩ.
(§4) Membrane currents were recorded using an EPC-10 patch clamp amplifier (HEKA Electronics, Lambrecht, Germany) and PatchMaster software (HEKA). The current signals were Bessel filtered at 2.5 kHz before being digitized at 5 kHz.
(§5) hERG-mediated membrane currents were recorded at typically 28° C., using the whole-cell configuration of the patch-clamp technique. […] During each inter-pulse interval 4 pulses scaled down by a factor of 0.2 were recorded for a P/n leak subtraction procedure. […] The remaining uncompensated Rs was recorded as well as actual temperature and holding current.
(§6) The concentrations of the test item were applied sequentially on each of the different cells investigated. A steady state level of baseline current was measured for at least 90 s prior to the application of the first test article concentration. […]
(§7) Peak current amplitudes were measured 3 ms after the ramp to +40 mV. […] Residual currents (I/I0) were calculated for each cell as the fraction of actual average peak current and average baseline peak current. Current inhibition was expressed as (1−I/I0)*100%. […]

Series [7] addresses T2, hERG-mediated potassium current (Homo sapiens, UniProt Q12809).
T2 construct: expressed in transfected cells
Described as above. Conditions: HEK293 cells, whole-cell patch clamp; read-out: IC50, inhibition of hERG-mediated potassium current. The format is cell-based.
Description: as §2, §3, §4, §5, §6, §7
On the technique in general: In patch-clamp work, channel activity is measured electrically.

The mark [8] stands for this setting: both sexes, Göttingen, plasma, 5 umol/kg.

T1 sequence (Q12809 whole entry): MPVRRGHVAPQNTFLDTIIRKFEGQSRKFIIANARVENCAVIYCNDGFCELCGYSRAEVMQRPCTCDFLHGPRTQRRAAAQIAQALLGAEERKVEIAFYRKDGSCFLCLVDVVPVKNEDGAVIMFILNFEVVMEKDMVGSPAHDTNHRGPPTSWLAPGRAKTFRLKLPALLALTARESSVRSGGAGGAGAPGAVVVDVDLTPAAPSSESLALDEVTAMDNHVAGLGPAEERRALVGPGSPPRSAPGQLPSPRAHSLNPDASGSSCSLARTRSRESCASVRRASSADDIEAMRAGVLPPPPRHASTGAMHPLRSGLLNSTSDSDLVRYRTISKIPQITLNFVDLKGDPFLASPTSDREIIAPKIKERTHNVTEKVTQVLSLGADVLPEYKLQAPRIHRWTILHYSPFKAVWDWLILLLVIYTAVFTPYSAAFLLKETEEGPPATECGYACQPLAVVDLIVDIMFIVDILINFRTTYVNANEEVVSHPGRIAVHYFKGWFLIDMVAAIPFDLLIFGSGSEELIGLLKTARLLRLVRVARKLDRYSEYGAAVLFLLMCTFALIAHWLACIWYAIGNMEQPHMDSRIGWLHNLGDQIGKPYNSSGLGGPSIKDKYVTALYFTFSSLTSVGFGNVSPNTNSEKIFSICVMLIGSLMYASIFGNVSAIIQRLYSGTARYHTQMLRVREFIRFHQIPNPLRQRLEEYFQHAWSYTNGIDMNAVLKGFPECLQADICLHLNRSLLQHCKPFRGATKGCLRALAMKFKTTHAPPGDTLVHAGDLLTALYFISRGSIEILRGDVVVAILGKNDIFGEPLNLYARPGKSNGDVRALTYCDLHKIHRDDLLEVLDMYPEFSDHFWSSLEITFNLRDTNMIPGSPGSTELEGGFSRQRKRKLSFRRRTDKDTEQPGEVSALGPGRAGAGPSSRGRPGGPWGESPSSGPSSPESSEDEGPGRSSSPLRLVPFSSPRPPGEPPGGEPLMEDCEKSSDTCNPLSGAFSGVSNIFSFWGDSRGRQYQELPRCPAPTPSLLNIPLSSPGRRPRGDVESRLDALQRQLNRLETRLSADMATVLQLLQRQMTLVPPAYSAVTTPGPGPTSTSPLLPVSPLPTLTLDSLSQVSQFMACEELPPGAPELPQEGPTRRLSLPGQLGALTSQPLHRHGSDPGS
T2 sequence (Q12809 whole entry): as above

By AUC(0-inf) is commonly meant the area under the concentration-time curve extrapolated to infinity. The clearance is a measure of how efficiently the substance is removed, as volume per time. A low value points to inefficient removal. In general, inhibition refers to how much of the control response was suppressed. One may read the pIC50 as −log10 of the IC50, conventionally taken in molar units. Regarding `CO[C@H]1COCC[C@H]1NC1CCN(C(=O)c2ncnc(NC[C@H]3CCC[C@@H](c4ccc(C)cc4)O3)c2C)CC1` [compound I, (4-((3R,4R)-3-methoxytetrahydro-pyran-4-ylamino)piperidin-1-yl)(5-methyl-6-(((2R,6S)-6-(p-tolyl)tetrahydro-2H-pyran-2-yl)methylamino)pyrimidin-4-yl)methanone], the Fraction unbound in series [1] is recorded as 39.2%; in series [4], 4.9%. The fraction unbound at 2 h, 1 μM is 0.392 in series [2] and 0.049 in series [5]. In series [3], this molecule came in with an MRTdisp of 4.15 h. In series [3] (setting [8]), this molecule returned an AUC(0-inf) of 4.31 µM·h. Also, the clearance in series [3] (setting [8]) stood at 20 mL/min/kg. In addition, in series [3] (both sexes, Göttingen, plasma, 5 umol/kg, read-out: Vss), the Vd came out at 5.07 L/kg. The inhibition at 10 µM in series [6] (at 10 μM) worked out at 12%. The inhibition at 30 µM in series [6] (at 30 μM) was determined as 28%. Also, the pIC50 in series [7] was under 4.52.
